# According to patent US8680139B2 (Progenra, priority 2009, dated 2014):
# Key:
# [1] = molecular target: T1, USP7 (Homo sapiens, UniProt Q93009); assay: USP7, Ub-PLA2 assay; format: biochemical; settings: Ub-PLA2 / NBD C6-HPC fluorescence, 30 minute preincubation; read-out: EC50 for inhibition of USP7
# T1 construct: full length human USP7 protein; made in house
# Procedure, shortened: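 Activity read as fluorescence in a Ub-PLA2 format, with percent inhibition calculated within each plate against DMSO (uninhibited) and NEM (background) wells. Vehicle was 100% DMSO.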
# [2] = test system: A549/ATCC; assay: NCI-60 Human Tumor Cell Line Growth Inhibition Screen; format: cell-based; settings: Non-Small Cell Lung Cancer, 48 hours, SRB
# Procedure: (§1) Various human tumor cell lines representing the NCI-60 cancer screening panel were grown in RPMI 1640 medium containing 5% fetal bovine serum and 2 mM L-glutamine. For a typical screening experiment, cells were inoculated into 96 well microtiter plates in 100 μL at plating densities ranging from 5,000 to 40,000 cells/well depending on the doubling time of individual cell lines. After cell inoculation, the microtiter plates were incubated at 37° C., 5% CO2, 95% air and 100% relative humidity for 24 hours prior to addition of the test compound. After 24 hours, two plates of each cell line were fixed in situ with TCA, to represent a measurement of the cell population for each cell line at the time of test compound addition (Tz). Experimental test compounds were solubilized in 100% (v/v) DMSO at 400-fold the desired final maximum test concentration and stored frozen prior to use. At the time of test compound addition, an aliquot of frozen concentrate was thawed and diluted to twice the desired final maximum test concentration with complete medium containing 50 μg/ml gentamicin. Additional four, 10-fold or ½ log serial dilutions were made to provide a total of five test compound concentrations plus control. Aliquots of 100 μl of these different test compound dilutions were added to the appropriate microtiter wells already containing 100 μl of medium, resulting in the required final test compound concentrations.
# (§2) Following test compound addition, the plates were incubated for an additional 48 hours at 37° C., 5% CO2, 95% air, and 100% relative humidity. For adherent cells, the assay was terminated by the addition of cold TCA. Cells were fixed in situ by the gentle addition of 50 μl of cold 50% (w/v) TCA and incubated for 60 minutes at 4° C. The supernatant was discarded, and the plates were washed five times with tap water and air dried. Sulforhodamine B (SRB) solution (100 μl) at 0.4% (w/v) in 1% acetic acid was added to each well, and plates were incubated for 10 minutes at room temperature. After staining, unbound dye was removed by washing five times with 1% acetic acid and the plates were air dried. Bound stain was subsequently solubilized with 10 mM trizma base, and the absorbance was read on an automated plate reader at a wavelength of 515 nm. For suspension cells, the methodology was the same except that the assay was terminated by fixing settled cells at the bottom of the wells by gently adding 50 μl of 80% TCA. Using the seven absorbance measurements [time zero, (Tz), control growth, (C), and test growth in the presence of test compound at the five concentration levels (Ti)], the percentage growth was calculated at each of the test compound concentrations levels. Percentage growth inhibition was calculated as: [(Ti−Tz)/(C−Tz)]×100 for concentrations for which Ti≧Tz or [(Ti−Tz)/Tz]×100 for concentrations for which Ti<Tz. Growth inhibition of 50% (GI50) was calculated from [(Ti−Tz)/(C−Tz)]×100=50, which is the test compound concentration resulting in a 50% reduction in the net protein increase (as measured by SRB staining) in control cells during the test compound incubation.
# [3] = test system: CAKI-1; assay: as above; format: cell-based; settings: CAKI-1, Renal Cancer, 48 hours, SRB
# Procedure: as §1, §2
# [4] = test system: HL-60(TB); assay: as above; format: cell-based; settings: Leukemia, 48 hours, SRB
# Procedure: as §1, §2
# [5] = test system: HT29; assay: as above; format: cell-based; settings: HT-29, HT29, Colon Cancer, 48 hours, SRB
# Procedure: as §1, §2
# [6] = test system: LOX IMVI; assay: as above; format: cell-based; settings: Melanoma, 48 hours, SRB
# Procedure: as §1, §2
# [7] = test system: MCF7; assay: as above; format: cell-based; settings: MCF7, Breast Cancer, 48 hours, SRB
# Procedure: as §1, §2
# [8] = test system: OVCAR-3; assay: as above; format: cell-based; settings: OVCAR-3, Ovarian Cancer, 48 hours, SRB
# Procedure: as §1, §2
# [9] = test system: PC-3; assay: as above; format: cell-based; settings: PC-3, Prostate Cancer, 48 hours, SRB
# Procedure: as §1, §2
# [10] = test system: U251; assay: as above; format: cell-based; settings: U-251, U251, CNS Cancer, 48 hours, SRB
# Procedure: as §1, §2
# [11] = test system: HCT-116 cells; assay: HCT-116 Combination Cytotoxicity Assay; format: cell-based, human; settings: constant ratio, 72 hours
# [12] = test system: human multiple myeloma tumor cells; assay: In vivo Efficacy of P5091; settings: SCID mice, 10 mg/kg intravenously twice a week for three weeks
# Procedure: Severe combined immunodeficient mice inoculated subcutaneously with human multiple myeloma tumor cells were treated intravenously twice a week for three weeks with 10 mg/kg P5091. […] See D. Chauhan et al., Abstract No. 610 (Deubiquitylating Enzyme USP-7, a Novel Therapeutic Target in Multiple Myeloma), 51st ASH Annual Meeting and Exposition, New Orelans, La., December 2009.
# [13] = HCT-116 Cellular Cytotoxicity Assay; settings: human, HCT-116 cells, pH 7.2
# Procedure: (§3) The purpose of this assay is to determine if any of the synthesized compounds are cytotoxic against HCT-116 cells, as measured by resazurin metabolism. Resazurin is metabolized only by living cells from a non-fluorescent molecule into Resorufin, a highly red fluorescent dye. […] The cells were cultured in an incubator at 37° C. in 5% CO2 and 95% humidified air. […] The final concentration DMSO was 0.5% (v/v) in all samples. The plates were returned to the incubator for 72 hours. Following 72 hours of test compound exposure, 10 μL of 0.2 mg/mL Resazurin (Sigma) in phosphate buffered saline was added to each well and the plate was returned to the incubator for 3-6 hours. Since living cells metabolize Resazurin, the fluorescence of the reduction product of Resazurin was measured using a microplate fluorometer with λex=531 nm and λem=590 nm filters. Resazurin dye in medium without cells was used to determine the background, which was subtracted from the data for all experimental wells.
# [14] = test system: HCT-116 cells
# Procedure: as §3
# T1 sequence (Q93009 whole entry): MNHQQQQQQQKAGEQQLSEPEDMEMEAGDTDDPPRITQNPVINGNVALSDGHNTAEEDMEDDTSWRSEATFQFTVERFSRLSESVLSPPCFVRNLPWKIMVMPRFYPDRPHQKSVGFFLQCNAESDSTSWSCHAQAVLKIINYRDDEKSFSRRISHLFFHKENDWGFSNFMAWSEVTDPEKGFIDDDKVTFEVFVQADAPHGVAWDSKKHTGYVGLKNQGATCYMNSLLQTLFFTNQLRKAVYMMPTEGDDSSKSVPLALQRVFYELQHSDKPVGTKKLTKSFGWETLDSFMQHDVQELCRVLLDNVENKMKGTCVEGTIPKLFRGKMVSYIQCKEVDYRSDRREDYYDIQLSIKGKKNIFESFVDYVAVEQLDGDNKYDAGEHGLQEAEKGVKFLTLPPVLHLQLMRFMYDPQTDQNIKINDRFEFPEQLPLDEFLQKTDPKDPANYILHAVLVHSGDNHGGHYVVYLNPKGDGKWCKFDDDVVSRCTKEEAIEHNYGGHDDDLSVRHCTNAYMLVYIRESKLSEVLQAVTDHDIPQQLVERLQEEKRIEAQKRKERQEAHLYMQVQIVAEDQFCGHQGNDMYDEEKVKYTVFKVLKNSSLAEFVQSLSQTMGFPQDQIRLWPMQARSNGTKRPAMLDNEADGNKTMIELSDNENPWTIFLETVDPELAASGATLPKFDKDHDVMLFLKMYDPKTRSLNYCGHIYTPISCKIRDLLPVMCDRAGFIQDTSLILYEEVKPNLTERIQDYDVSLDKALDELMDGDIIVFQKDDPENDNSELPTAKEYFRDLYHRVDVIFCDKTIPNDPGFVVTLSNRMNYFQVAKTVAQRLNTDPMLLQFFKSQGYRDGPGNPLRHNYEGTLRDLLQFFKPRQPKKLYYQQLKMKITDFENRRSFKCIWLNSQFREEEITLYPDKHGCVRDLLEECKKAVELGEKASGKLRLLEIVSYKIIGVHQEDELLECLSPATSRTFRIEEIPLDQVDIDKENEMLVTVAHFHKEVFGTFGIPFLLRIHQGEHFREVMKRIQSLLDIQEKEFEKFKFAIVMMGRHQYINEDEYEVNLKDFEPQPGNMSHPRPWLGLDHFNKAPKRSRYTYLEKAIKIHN
compound,measurement,setting,value
"CS(=O)(=O)c1cc([N+](=O)[O-])c(Sc2c(Cl)cncc2Cl)s1 [Example 22, 3,5-dichloro-4-[(5-methylsulfonyl-3-nitro-2-thienyl)sulfanyl]pyridine]",EC50,[1],1000 to 10000 nM
same,GI50,[2],13800 nM
same,GI50,[3],1820 nM
same,GI50,[4],1410 nM
same,GI50,[5],2040 nM
same,GI50,[6],10000 nM
same,GI50,[7],2040 nM
same,GI50,[8],1820 nM
same,GI50,[9],3720 nM
same,GI50,[10],12900 nM
"CS(=O)(=O)c1cc([N+](=O)[O-])c(Sc2ccc(Cl)cc2Cl)s1 [Example 23, 2-(2,4-dichlorophenyl)sulfanyl-5-methylsulfonyl-3-nitro-thiophene]",EC50,[1],1000 to 10000 nM
same,GI50,[2],12600 nM
same,GI50,[3],2240 nM
same,GI50,[4],2190 nM
same,GI50,[5],1780 nM
same,GI50,[6],1740 nM
same,GI50,[7],1700 nM
same,GI50,[8],1620 nM
same,GI50,[9],3980 nM
same,GI50,[10],6310 nM
"CC(=O)c1cc([N+](=O)[O-])c(Sc2cccc(Cl)c2Cl)s1 [Example P5091, 1-[5-(2,3-dichlorophenyl)sulfanyl-4-nitro-2-thienyl]ethanone]",GI50,[2],16300 nM
same,GI50,[3],2170 nM
same,GI50,[4],1820 nM
same,GI50,[5],2070 nM
same,GI50,[6],1840 nM
same,GI50,[7],1940 nM
same,GI50,[8],1650 nM
same,GI50,[9],1780 nM
same,GI50,[10],2330 nM
same,CI (mean ± SD) ED75,[11]; combination with Chlormethine,0.67 ± 0.07
same,CI (mean ± SD) ED90,[11]; combination with Chlormethine,0.77 ± 0.05
same,CI (mean ± SD) ED75,[11]; combination with Doxorubicin,0.73 ± 0.08
same,CI (mean ± SD) ED90,[11]; combination with Doxorubicin,0.81 ± 0.02
same,CI (mean ± SD) ED75,[11]; combination with Etoposide,0.54 ± 0.04
same,CI (mean ± SD) ED90,[11]; combination with Etoposide,0.63 ± 0.01
same,human plasmacytoma growth,[12],significantly inhibited human plasmacytoma growth
same,survival,[12],significantly enhanced survival
same,EC50 at 72 h,[13],9210 nM
"N-(5-(tert-butyl)isoxazol-3-yl)-5-((3,5-dichloropyridin-4-yl)thio)-4-nitrothiophene-2-carboxamide [Example 201]",EC50,[14],12900 nM
"CC(=O)c1cc([N+](=O)[O-])c(Sc2c(Cl)cncc2Cl)s1 [Example 17, 1-[5-[(3,5-dichloro-4-pyridyl)sulfanyl]-4-nitro-2-thienyl]ethanone]",EC50,[1],1000 to 10000 nM
same,GI50,[2],3090 nM
same,GI50,[3],1860 nM
same,GI50,[4],1910 nM
same,GI50,[5],1860 nM
same,GI50,[6],1510 nM
same,GI50,[7],1910 nM
same,GI50,[8],1410 nM
same,GI50,[9],2750 nM
same,GI50,[10],1950 nM
same,EC50 at 72 h,[13],8660 nM
"CC(=O)c1cc([N+](=O)[O-])c(Sc2ccc(F)cc2F)s1 [Example 3, 1-[5-(2,4-Difluorophenylsulfanyl)-4-nitro-2-thienyl]ethanone]",GI50,[2],15500 nM
same,GI50,[3],1820 nM
same,GI50,[4],2750 nM
same,GI50,[5],3800 nM
same,GI50,[6],1510 nM
same,GI50,[7],2570 nM
same,GI50,[8],2040 nM
same,GI50,[9],12000 nM
same,GI50,[10],4790 nM
